Source: patent US12285395B2, “Pharmaceutical composition for preventing or treating allodynia caused by anticancer agents” (UNIVERSITY-INDUSTRY COOPERATION GROUP OF KYUNG HEE …, priority 2018, dated 2025)

Key:
[1] = test system: mechanical allodynia induced by oxaliplatin; experiment: Mechanical allodynia (von Frey filament 0.4 g), oxaliplatin animal model, oral cinnamic acid; assay type: in vivo, c57/bl6 mice; settings: mice, 10 mg/kg oral (FIG. 1)
Experimental: (§1) Six-week-old mice (c57/bl6 mice) were prepared as an experimental animal.
(§2) Oxaliplatin (Sigma-Aldrich) dissolved in a 5% glucose solution at a concentration of 2 mg/mL was singly administered intraperitoneally to the experimental animal in an amount of 6 mg/kg. Significant pain was observed from about 3 days after intraperitoneal administration.
The number of reactions was recorded by stimulating the soles of both hind paws of the experimental animal 10 times using a von Frey filament at a pressure of 0.4 g.
The behaviors that are criteria for recording are an avoidance reaction and a behavior of licking the soles of the paw. The recording for both paws was averaged and confirmed.
(§3) Experimental animals induced with allodynia were selected through a pre-behavioral experiment, and the effects were confirmed at 2 h after oral administration of 10 mg/kg of cinnamic acid.

[2] = test system: mechanical allodynia induced by vincristine; experiment: Mechanical allodynia (von Frey filament 0.4 g), vincristine animal model, oral cinnamic acid; assay type: in vivo, c57/bl6 mice; settings: mice
Experimental: Six-week-old mice (c57/bl6 mice) were prepared as an experimental animal. Vincristine at a concentration of 1 mg/mL was injected intraperitoneally for 7 consecutive days at 0.1 mg/kg. Significant pain was observed from about 10 days after the first injection. The number of reactions was recorded by stimulating the soles of both hind paws of the experimental animal 10 times using a von Frey filament at a pressure of 0.4 g. The behaviors that are criteria for recording are an avoidance reaction and a behavior of licking the soles of the paw. The recording for both paws was averaged and confirmed. Experimental animals induced with allodynia were selected through a pre-behavioral experiment and orally administered with 50 mg/kg and 100 mg/kg of cinnamic acid, and the effects after 1 h and 2 h were confirmed.

[3] = test system: mechanical allodynia induced by paclitaxel; experiment: Mechanical allodynia (von Frey filament 0.4 g), paclitaxel animal model, oral cinnamic acid; assay type: in vivo, c57/bl6 mice; settings: mice
Experimental: Six-week-old mice (c57/bl6 mice) were prepared as an experimental animal. Paclitaxel (Sigma-Aldrich) dissolved at a concentration of 6 mg/mL in a 1:1 solution of Cremophor EL and ethanol was diluted to a concentration of 2 mg/mL and intraperitoneally injected 4 times at 2 mg/kg. The dosage was administered every other day on days 0, 2, 4, and 6. Significant pain was observed from about 10 days after the first dosage. The number of reactions was recorded by stimulating the soles of both hind paws of the experimental animal 10 times using a von Frey filament at a pressure of 0.4 g. The behaviors that are criteria for recording are an avoidance reaction and a behavior of licking the soles of the paw. The recording for both paws was averaged and confirmed. As a pre-behavioral experiment, 50 mg/kg and 100 mg/kg of cinnamic acid was orally administered to experimental animals induced with allodynia, and the effects after 1 h and 2 h were confirmed.

[4] = test system: cold allodynia induced by vincristine; experiment: Cold allodynia (acetone application), vincristine animal model, oral cinnamic acid; assay type: in vivo, c57/bl6 mice
Experimental: Six-week-old mice (c57/bl6 mice) were prepared as an experimental animal. Vincristine at a concentration of 1 mg/mL was injected intraperitoneally for 7 consecutive days at 0.1 mg/kg. Significant pain was observed from about 10 days after the first injection. The reaction that occurred by applying about 20 μL of acetone to the soles of both rear paws of the experimental animal was observed and recorded for about 15 s. Behaviors that are criteria for recording are an avoidance reaction, a behavior of shaking the soles of the paw, and a behavior of licking the soles of the paw. The evaluation was repeated a total of three times, and the average of the number of recorded behaviors was confirmed. Experimental animals induced with allodynia were selected through a pre-behavioral experiment and orally administered with 50 mg/kg and 100 mg/kg of cinnamic acid, and the effects after 1 h and 2 h were confirmed.

[5] = test system: oxaliplatin-induced mechanical allodynia; experiment: von Frey filament test (up-down method), oxaliplatin-induced mechanical allodynia, intraperitoneal administration; assay type: in vivo, Sprague Dawley (SD) rats
Experimental: (§4) Cinnamic acid (trans-cinnamic acid, Wako Pure Chemical Industries, Osaka, Japan) and cinnamaldehyde (Wako Pure Chemical Industries, Osaka, Japan) were dissolved in 10% dimethyl sulfoxide (DMSO, Sigma) (adjusted to pH 7 with 2 M HCl and 5 M NaOH) and 1% Tween 20 (Sigma), respectively. The final volume of 10% DMSO and 1% Tween 20 used in the experiment was […] rat. Cinnamic acid and cinnamaldehyde (10 mg/kg, 20 mg/kg, and 40 mg/kg) (i.p.) at different concentrations were administered to rats with cold allodynia and mechanical allodynia.
(§5) Seven-week-old male Sprague Dawley (SD) rats (180 g to 210 g, 95 rats total, Young Bio, Gyeonggi, Korea) were fed freely with feed and water in cages. The room temperature was maintained at 23±2° C. and a 12 h/12 h contrast cycle was maintained. All procedures described in the present disclosure were approved by the Animal Care and Use Committee of Kyunghee University (KHUASP[SE]-18-153) and followed the guidelines of the International Pain Research Association.
(§6) In order to measure cold allodynia and mechanical allodynia, according to a previous method (Flatters, S J; Bennett, G J Ethosuximide reverses paclitaxel- and vincristine-induced painful peripheral neuropathy. Pain 2004, 109, 150-161), an acetone drop test and a von Frey filament test (up-down method, Linton Instrumentation, Norfolk, UK) were performed, respectively. The rats were trained for one week before the start of the experiment to adapt to the touch and the experimental procedure. The rats were stabilized for 30 min before testing in a clear plastic box (20 cm×20 cm×14 cm) with a wire mesh bottom, while not recognizing the injection of oxaliplatin and other drugs.
(§7) For the mechanical allodynia test, paw withdrawal thresholds were measured in the right hind paw using a von Frey filament. Dixon's up-down method and Chaplan's calculation method were used, and a withdrawal threshold of 15 g was measured as a cut-off. In order to confirm the effects of cinnamaldehyde and cinnamic acid at different concentrations over time, the behavioral experiment was performed before injection of cinnamic acid and cinnamaldehyde (time point of 0 min) and at time points of 30 min, 60 min, and 120 min after injection.
(§8) Oxaliplatin (Wako Pure Chemical Industries, Osaka, Japan) was dissolved in a 5% glucose solution at a concentration of 2 mg/mL and injected intraperitoneally at a dose of 6 mg/kg. The same volume of 5% glucose solution (i.p.) was administered to a control.
(§9) All data are expressed as mean±S.E.M. (Standard error of the mean). The data in FIG. 4 was analyzed by a paired t-test (FIGS. 4A and 4B) or an unpaired t-test (FIG. 4C). The data in FIGS. 5 and 6 were expressed as mean±S.E.M. and analyzed by a Bonferroni post-test after one-way ANOVA to evaluate a statistical difference between groups. The data in FIG. 7A were analyzed using Dunnett's multiple comparisons test after two-way ANOVA. The 95% reliability was considered to be statistically significant.

[6] = test system: cold allodynia induced by oxaliplatin; experiment: Cold allodynia (acetone application), oxaliplatin animal model, oral cinnamic acid; assay type: in vivo, c57/bl6 mice
Experimental: as §1, §2
The reaction that occurred by applying about 20 μL of acetone to the soles of both rear paws of the experimental animal was observed and recorded for about 15 s.
Behaviors that are criteria for recording are an avoidance reaction, a behavior of shaking the soles of the paw, and a behavior of licking the soles of the paw. The evaluation was repeated a total of three times, and the average of the number of recorded behaviors was confirmed.
as §3

spinal WDR neurons = experiment: In vivo extracellular recording of spinal WDR neurons after oxaliplatin; design: species or system Sprague Dawley (SD) rats
Experimental: as §5
Oxaliplatin (Wako Pure Chemical Industries, Osaka, Japan) was dissolved in a 5% glucose solution at a concentration of 2 mg/mL and injected intraperitoneally at a dose of 6 mg/kg. The same volume of 5% glucose solution (i.p.) was administered to a control. […]
as §9, with “The 95% reliability was considered to be statistically significant.” left out

[7] = test system: cold allodynia induced by paclitaxel; experiment: Cold allodynia (acetone application), paclitaxel animal model, oral cinnamic acid; assay type: in vivo, c57/bl6 mice
Experimental: Six-week-old mice (c57/bl6 mice) were prepared as an experimental animal. Paclitaxel (Sigma-Aldrich) dissolved at a concentration of 6 mg/mL in a 1:1 solution of Cremophor EL and ethanol was diluted to a concentration of 2 mg/mL and intraperitoneally injected 4 times at 2 mg/kg. The dosage was administered every other day on days 0, 2, 4, and 6. Significant pain was observed from about 10 days after the first dosage. The reaction that occurred by applying about 20 μL of acetone to the soles of both rear paws of the experimental animal was observed and recorded for about 15 s. Behaviors that are criteria for recording are an avoidance reaction, a behavior of shaking the soles of the paw, and a behavior of licking the soles of the paw. The evaluation was repeated a total of three times, and the average of the number of recorded behaviors was confirmed. As a pre-behavioral experiment, 50 mg/kg and 100 mg/kg of cinnamic acid was orally administered to experimental animals induced with allodynia, and the effects after 1 h and 2 h were confirmed.

[8] = test system: oxaliplatin-induced cold allodynia; experiment: Acetone drop test, oxaliplatin-induced cold allodynia, intraperitoneal administration; assay type: in vivo, Sprague Dawley (SD) rats; settings: for effect on oxaliplatin-induced cold allodynia: all three doses 10, 20 and 40 mg/kg i.p., 30, 60, 120 min after injection (FIG. 5A, FIG. 6)
Experimental: as §4, §5, §6
Acetone was dripped 5 times on the right hind paw, and the total frequency of licking and shaking of the soles was measured as an average per time.
as §7, §8, §9

[9] = 10, 20 and 40 mg/kg i.p., 30, 60, 120 min after injection (FIG. 5B, FIG. 6)

O=C(O)/C=C/c1ccccc1 [cinnamic acid]
pain relief effect on mechanical allodynia compared to control (vehicle) [1]: no significant pain relief effect | pain relief effect on mechanical allodynia ([2]; 50 mg/kg oral (FIG. 3)): no significant pain relief effect | pain relief effect on mechanical allodynia compared to control ([2]; 100 mg/kg oral (FIG. 3)): no significant pain relief effect | pain relief effect on mechanical allodynia ([3]; 50 mg/kg oral (FIG. 2)): no significant pain relief effect | pain relief effect on mechanical allodynia compared to control ([3]; 100 mg/kg oral (FIG. 2)): no significant pain relief effect | time after administration up to which pain relief effect on cold allodynia was shown ([4]; high dose 100 mg/kg p.o.): up to 1 h | pain relief effect on cold allodynia ([4]; mice, 50 mg/kg oral (FIG. 3)): no significant pain relief effect | pain relief effect on cold allodynia compared to control ([4]; mice, 100 mg/kg oral, after 1 h (FIG. 3)): significant pain relief effect | effect on oxaliplatin-induced mechanical allodynia ([5]; 10 mg/kg i.p., 60 min after injection (FIG. 5B)): remarkable effect | anti-allodynic effect on mechanical allodynia ([5]; 20 mg/kg i.p., all time points, compared with 10 and 40 mg/kg (FIG. 5B)): strongest anti-allodynic effect among the three doses | effect on oxaliplatin-induced mechanical allodynia [5, 9]: significantly alleviated | time after administration up to which pain relief effect on cold allodynia was shown ([6]; low dose 10 mg/kg p.o.): up to 2 h | pain relief effect on cold allodynia compared to control (vehicle) ([6]; mice, 10 mg/kg oral, 2 h after administration (FIG. 1)): significant pain relief effect | increased activity of WDR neurons after oxaliplatin injection (brush, press, pinch, acetone drop stimulations) (spinal WDR neurons; 20 mg/kg i.p., day 4 after oxaliplatin, vs 10% DMSO control (FIGS. 7A to 7D)): significantly decreased | time after administration up to which pain relief effect on cold allodynia was shown ([7]; high dose 100 mg/kg p.o.): up to 1 h | pain relief effect on cold allodynia ([7]; mice, 50 mg/kg oral (FIG. 2)): no significant pain relief effect | pain relief effect on cold allodynia compared to control ([7]; mice, 100 mg/kg oral, after 1 h (FIG. 2)): significant pain relief effect | time point at which the effect on cold allodynia disappeared ([8]; 10 mg/kg i.p. (FIG. 5A)): 120 min | pain relief effect on cold allodynia of 20 mg/kg relative to 40 mg/kg ([8]; 20 mg/kg i.p. vs 40 mg/kg i.p. (control vs. 20 mg/kg p<0.001, 40 mg/kg p<0.05) (FIG. 5A)): slightly stronger | effect on oxaliplatin-induced cold allodynia [8]: had effects on cold allodynia | optimal dose for alleviating cold allodynia and mechanical allodynia caused by oxaliplatin ([8]; intraperitoneal administration, doses tested 10, 20, 40 mg/kg): 20 mg/kg

O=CC=Cc1ccccc1 [cinnamaldehyde, reference compound]
effect on oxaliplatin-induced mechanical allodynia [5, 9]: did not have relief effects | effect on oxaliplatin-induced cold allodynia [8]: did not have relief effects

O=C1[O][Pt]2([NH][C@@H]3CCCC[C@H]3[NH]2)[O]C1=O [oxaliplatin, reference compound]
induction of mechanical allodynia (von Frey) ([5]; oxaliplatin 6 mg/kg i.p. single injection, day 4, p<0.001 vs before (FIG. 4B)): significantly induced | number of spike responses of WDR neurons to mechanical (brush, press, pinch) and cold (acetone drop) stimulations (spinal WDR neurons; after oxaliplatin 6 mg/kg i.p. vs 5% glucose control (FIGS. 4C to 4F)): significantly increased | induction of cold allodynia (acetone drop) ([8]; oxaliplatin 6 mg/kg i.p. single injection, day 4, p<0.001 vs before (FIG. 4A)): significantly induced
